Experiments:
[1] = tested on: CoCSC-derived culture (TGFBR2-mutant tumour organoids of a Stage IV CRC patient); experiment: in vitro growth of CoCSC-derived tumour organoid culture; type: cell-based, human; conditions: both TGFBR2 alleles inactivated, data not shown
Description: The purification of Colon Cancer CoCSCs from CRC biopsies is described elsewhere (Merlos-Suarez et al., 2011, Cell Stem Cell 8, 511-524). We isolated CoCSCs from the primary tumour of a Stage IV CRC patient and cultured them as epithelial tumour organoids as described in (Jung et al., 2011; Nat Med 17, 1225-1227; Sato et al., 2011; Gastroenterology 141, 1762-1772). […] When injected in immunodeficient mice, they generated tumours with abundant p-SMAD2+ stromal cells, implying that this primary CoCSCs elicited a TGF-beta response in the tumour microenvironment (data not shown).

[2] = tested on: colon cancer stem cells derived from a stage IV patient; experiment: subcutaneous tumour formation by primary CoCSC-derived cells in mice; type: in vivo; conditions: 2 mg twice a day per os, from three days prior to inoculation until sacrifice; FIG. 12A
Description: (§1) A. Kaplan Meier curves show tumour free survival over time for mice injected subcutaneously with colon cancer stem cells derived from a stage IV patient, treated or not with a TGF beta inhibitor (LY2157299). Mice received LY2157299 or vehicle from three days prior to inoculation until sacrifice (n=12) B. Bioluminescence over time after intrasplenic inoculation of 5×10^5 colon cancer stem cells derived from a stage IV patient in NSG mice treated as in A. Intensities were normalized to day 0 and arbitrarily set to 100. Values are mean±SEM (*: p<0.05).
All experiments with mouse models were approved by the animal care and use committee of the Barcelona Science Park (CEEA-PCB) and the Catalan Government. Cells were injected subcutaneously in 5 to 6 weeks old Swiss nude or NSG mice, (Jackson Labs), which were followed for the periods described. Tumour appearance was assessed by palpation. Five to six weeks old Balb/c nude or NSG mice (Jackson Labs) were used to perform metastasis experiments by intra-splenic injection (Warren et al., 1995, J. Clin. Invest. 95, 1789-1797) […]

[3] = tested on: colon cancer stem cells derived from a stage IV patient; experiment: liver metastasis after intrasplenic inoculation of CoCSCs, bioluminescence; type: in vivo, NSG mice
Description: as §1
All experiments with mouse models were approved by the animal care and use committee of the Barcelona Science Park (CEEA-PCB) and the Catalan Government. Cells were injected subcutaneously in 5 to 6 weeks old Swiss nude or NSG mice, (Jackson Labs), which were followed for the periods described. Tumour appearance was assessed by palpation. […]
Mice were anaesthetized, injected retro-orbitally with D-luciferin (Promega) and imaged for luciferase activity as previously described (Minn et al., 2005; J Clin Invest 115, 44-55). Luciferase activity measured immediately after cell injection was used to exclude any mice that were not successfully xenografted and to normalize bioluminescence. […]

[4] = tested on: TGF-beta signalling (p-SMAD2); experiment: TGF-beta signalling and target gene mRNA in pre-established xenografts; type: in vivo, mice; conditions: tenfold higher dosed treatment for 3 days
Description: The TGF-beta receptor I kinase antagonist, LY2157299, developed by Eli Lilly (Beight, 2004, Eli Lilly and Co. PCT Int. Appl. In PCT Int. Appl. WO2004048382A1; Bueno et al., 2008; Eur J Cancer 44, 142-150) was synthesized following the procedure described (Mundla, 2007; Eli Lilly and Company. PCT Int. Appl. WO2007018818A1. In, (USA)). TGF-beta receptor type I inhibitor LY2157299 was suspended in a formulation (vehicle) composed of 1% sodium carboxy methylcellulose (NaCMC), 0.4% sodium lauryl sulfate (SLS), 0.05% anti-foam and 0.085% polyvinylpyrrolidone (PVP) in a concentration of 6.67 mg mL^−1. Mice were dosed twice a day with 2 mg in 300 μL (2 mg) per os. starting 3 days before CRC cell lines inoculation. A tenfold higher dosed treatment for 3 days was used to show TGF-beta signalling (p-SMAD2) and target gene mRNA downregulation in pre-established xenografts.

Compound | in vitro growth rates, morphology or organoid forming activity [1] | formation of subcutaneous tumours (tumour free survival) [2] | number of cells that engrafted the liver immediately after inoculation ([3]; kinetics of metastatic colonization, FIG. 12B inset) | formation of liver metastasis by CoCSCs inoculated via the spleen ([3]; same regime, 5×10^5 cells intrasplenic, NSG mice, FIG. 12B) | TGF-beta signalling (p-SMAD2) and target gene mRNA [4]
active TGF-beta: active TGF-beta added to the CoCSC-derived culture | did not modify |  |  |  | 
Cc1cccc(-c2nn3c(c2-c2ccnc4ccc(C(N)=O)cc24)CCC3)n1 [LY2157299, 2-(6-methyl-pyridin-2-yl)-3-[6-amido-quinolin-4-yl)-5,6-dihydro-4H-pyrrolo[1,2-b]pyrazole] | did not modify | conferred resistance to the formation of subcutaneous tumours | reduced the number of cells that engrafted the liver | reduced formation of liver metastasis | downregulation
